From PubChem BioAssay AID256 (DTP/NCI, 2004)
Inconclusive results and toxic doses are left out. How the source made its calls: active means survival T/C of 150% or more; inactive means T/C below 125% in these data.

Test system: CD2F1 mice, L1210 leukemia ip, survival T/C
Assay: NCI In Vivo Anticancer Drug Screen. Data for tumor model L1210 Leukemia (intraperitoneal) in CD2F1 (CDF1) mice
Conditions: higher = longer survival
Procedure, shortened: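 Vehicle-treated tumor-bearing mice served as controls (C) for compound-treated mice (T). Reported figure is T divided by C.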

[1] = endpoint: mean survival time, dose: 100.0 mg/kg/injection, schedule: Q01DX009 (ip), vehicle: saline with Tween-80
[2] = endpoint: mean survival time, dose: 100.0 mg/kg/injection, schedule: Q04DX003 (ip), vehicle: saline with Tween-80
[3] = endpoint: mean survival time, dose: 200.0 mg/kg/injection, schedule: Q01DX009 (ip), vehicle: saline with Tween-80
[4] = endpoint: mean survival time, dose: 200.0 mg/kg/injection, schedule: Q04DX003 (ip), vehicle: saline with Tween-80
[5] = endpoint: mean survival time, dose: 400.0 mg/kg/injection, schedule: Q01DX009 (ip), vehicle: saline with Tween-80
[6] = endpoint: mean survival time, dose: 400.0 mg/kg/injection, schedule: Q04DX003 (ip), vehicle: saline with Tween-80
[7] = endpoint: mean survival time, dose: 100.0 mg/kg/injection, schedule: Q01DX001 (ip), vehicle: saline
[8] = endpoint: mean survival time, dose: 200.0 mg/kg/injection, schedule: Q01DX001 (ip), vehicle: saline
[9] = endpoint: mean survival time, dose: 400.0 mg/kg/injection, schedule: Q01DX001 (ip), vehicle: saline
[10] = endpoint: mean survival time, dose: 50.0 mg/kg/injection, schedule: Q01DX009 (ip), vehicle: saline with Tween-80
[11] = endpoint: mean survival time, dose: 100.0 mg/kg/injection, schedule: Q04DX002 (ip), vehicle: saline with Tween-80
[12] = endpoint: mean survival time, dose: 200.0 mg/kg/injection, schedule: Q04DX002 (ip), vehicle: saline with Tween-80
[13] = endpoint: mean survival time, dose: 400.0 mg/kg/injection, schedule: Q04DX002 (ip), vehicle: saline with Tween-80
[14] = endpoint: mean survival time, dose: 50.0 mg/kg/injection, schedule: Q01DX001 (ip), vehicle: saline with Tween-80
[15] = endpoint: mean survival time, dose: 100.0 mg/kg/injection, schedule: Q01DX001 (ip), vehicle: saline with Tween-80
[16] = endpoint: mean survival time, dose: 200.0 mg/kg/injection, schedule: Q01DX001 (ip), vehicle: saline with Tween-80
[17] = endpoint: mean survival time, dose: 400.0 mg/kg/injection, schedule: Q01DX001 (ip), vehicle: saline with Tween-80

Measured: T/C

CC(=O)CCCSCCO
inactive: endpoint: mean survival time, dose: 100.0 mg/kg/injection, schedule: Q04DX003 (ip), vehicle: saline 101 % of control | endpoint: mean survival time, dose: 200.0 mg/kg/injection, schedule: Q04DX003 (ip), vehicle: saline 97 % of control | endpoint: mean survival time, dose: 400.0 mg/kg/injection, schedule: Q04DX003 (ip), vehicle: saline 101 % of control

Clc1ccccc1/C=C1/c2ccccc2-c2nc3ccccc3cc21
inactive: [1] 97 % of control | [2] 89 % of control | [3] 105 % of control | [4] 100 % of control | [5] 102 % of control | [6] 95 % of control

Cc1oc([N+](=O)[O-])cc1C(=O)O
inactive: [2] 102 % of control | [4] 102 % of control | [6] 115 % of control

CC1(C)N=C(N)N=C(N)N1c1ccc(CCC(=O)Nc2ccc(S(=O)(=O)F)cc2)c(Cl)c1
inactive: endpoint: mean survival time, dose: 6.25 mg/kg/injection, schedule: Q01DX009 (ip), vehicle: saline 104 % of control | endpoint: mean survival time, dose: 6.25 mg/kg/injection, schedule: Q01DX009 (ip), vehicle: water 112 % of control | endpoint: mean survival time, dose: 12.5 mg/kg/injection, schedule: Q01DX009 (ip), vehicle: saline 120 % of control | endpoint: mean survival time, dose: 12.5 mg/kg/injection, schedule: Q01DX009 (ip), vehicle: water 112 % of control | endpoint: mean survival time, dose: 25.0 mg/kg/injection, schedule: Q01DX009 (ip), vehicle: water 119 % of control | endpoint: mean survival time, dose: 50.0 mg/kg/injection, schedule: Q01DX009 (ip), vehicle: saline 120 % of control

C=CCC12CCCCC1=CC(=O)CC2 (stereo not drawn)
inactive: [2] 97 % of control | [4] 100 % of control | [6] 102 % of control

O=P1(C(Cl)Cl)OCCCO1
inactive: [7] 103 % of control | [8] 100 % of control | [9] 100 % of control

COC1(O)C(=O)c2ccccc2OC1(OC)c1ccc(C)cc1 (stereo not drawn)
inactive: endpoint: mean survival time, dose: 50.0 mg/kg/injection, schedule: Q01DX001 (ip), vehicle: saline 102 % of control | [7] 98 % of control | [8] 96 % of control | [9] 98 % of control

CC(=O)Nc1ccc(/C=N/NC(=O)CNC(=O)NCc2ccco2)cc1
inactive: [10] 96 % of control | [1] 92 % of control | [3] 94 % of control

CC(C)CN1C(=O)C2C3CCC(O3)C2C1=O (stereo not drawn)
inactive: [11] 95 % of control | [12] 91 % of control | [13] 102 % of control

NCC(Cc1ccc(O)cc1)P(=O)(O)O (stereo not drawn)
inactive: [1] 102 % of control | [3] 105 % of control | [5] 93 % of control

COC(=O)C1c2cc3c(c(O)c2CCC1(C)O)C(=O)c1c(O)cc2c(c1C3=O)OC1OC2(C)C(O)C(N(C)C)C1O (stereo not drawn)
inactive: [7] 103 % of control | [8] 104 % of control | [9] 104 % of control

COc1cccc(CC2NCCc3c2[nH]c2ccccc32)c1 (stereo not drawn)
inactive: endpoint: mean survival time, dose: 25.0 mg/kg/injection, schedule: Q01DX001 (ip), vehicle: saline with Tween-80 98 % of control | [14] 90 % of control | [15] 87 % of control

C=C(C)CCNc1ncnc2nc[nH]c12
inactive: [2] 97 % of control | [4] 101 % of control | [6] 95 % of control

Nc1ncnc2c1ncn2C1OC(CF)C(O)C1O (stereo not drawn)
inactive: [7] 104 % of control | [8] 98 % of control

Nc1ccnc(Oc2ccc(Cl)cc2)n1
inactive: [15] 104 % of control | [16] 104 % of control | [17] 98 % of control

O=C(O)C1CC[N-]CC1.O=C(O)C1CC[N-]CC1.[Cl][Pt+2][Cl]
inactive: [14] 110 % of control | [2] 107 % of control | [16] 110 % of control | [3] 97 % of control

CCCCCCC[CH2][Sn]1([CH2]CCCCCCC)[O]C2C(CO)OC(n3ccc(N)nc3=O)C2[O]1 (stereo not drawn)
inactive: endpoint: mean survival time, dose: 12.5 mg/kg/injection, schedule: Q01DX005 (ip), vehicle: other 103 % of control | endpoint: mean survival time, dose: 25.0 mg/kg/injection, schedule: Q01DX005 (ip), vehicle: other 97 % of control | endpoint: mean survival time, dose: 50.0 mg/kg/injection, schedule: Q01DX005 (ip), vehicle: other 100 % of control | endpoint: mean survival time, dose: 100.0 mg/kg/injection, schedule: Q01DX005 (ip), vehicle: other 109 % of control

O=C1c2ccccc2C(=O)N1CCN1C(=O)c2ccccc2C1=O
inactive: endpoint: mean survival time, dose: 75.0 mg/kg/injection, schedule: Q01DX001 (ip), vehicle: saline with Tween-80 94 % of control | endpoint: mean survival time, dose: 150.0 mg/kg/injection, schedule: Q01DX001 (ip), vehicle: saline with Tween-80 95 % of control | endpoint: mean survival time, dose: 300.0 mg/kg/injection, schedule: Q01DX001 (ip), vehicle: saline with Tween-80 94 % of control

O=C1NC(=O)C(C2CC2)(C2CC2)N1
inactive: [1] 95 % of control | [3] 94 % of control | [5] 96 % of control

Cc1ccc(-n2c(=S)[nH]c3ccccc3c2=O)cc1
inactive: [2] 100 % of control

COC(=O)c1ccc(OC)c2nc3c(C=O)c(OC)c(C)c(OC)c3nc12
inactive: [15] 94 % of control | [11] 98 % of control | [16] 95 % of control | [12] 106 % of control | [17] 103 % of control | [13] 106 % of control

CC(N)(CCO)C(=O)O (stereo not drawn)
inactive: endpoint: mean survival time, dose: 100.0 mg/kg/injection, schedule: Q01DX009 (ip), vehicle: saline sonified 97 % of control | [2] 101 % of control | endpoint: mean survival time, dose: 200.0 mg/kg/injection, schedule: Q01DX009 (ip), vehicle: saline sonified 104 % of control | [4] 101 % of control | endpoint: mean survival time, dose: 400.0 mg/kg/injection, schedule: Q01DX009 (ip), vehicle: saline sonified 103 % of control | [6] 98 % of control

CCc1ccccc1N1CCN(C(=O)c2cc(OC)c(OC)c(OC)c2)CC1
inactive: endpoint: mean survival time, dose: 100.0 mg/kg/injection, schedule: Q01DX009 (ip), vehicle: acetone 118 % of control | endpoint: mean survival time, dose: 150.0 mg/kg/injection, schedule: Q01DX009 (ip), vehicle: acetone 124 % of control | endpoint: mean survival time, dose: 225.0 mg/kg/injection, schedule: Q01DX009 (ip), vehicle: acetone 90 % of control

CCOC(=O)c1cc(C)[nH]c(=O)c1C#N
inactive: endpoint: mean survival time, dose: 25.0 mg/kg/injection, schedule: Q01DX009 (ip), vehicle: saline with Tween-80 93 % of control | endpoint: mean survival time, dose: 25.0 mg/kg/injection, schedule: Q04DX003 (ip), vehicle: saline with Tween-80 102 % of control | [10] 96 % of control | endpoint: mean survival time, dose: 50.0 mg/kg/injection, schedule: Q04DX003 (ip), vehicle: saline with Tween-80 102 % of control | [1] 93 % of control | [2] 98 % of control

O=C(Nc1ccc2c3c(cccc13)CC2)c1ccccc1
inactive: [2] 95 % of control | [4] 97 % of control | [6] 92 % of control

Cc1cc(S(=O)(=O)F)cc(Cl)c1OC(=S)N(C)C
inactive: [11] 96 % of control | [12] 96 % of control | [13] 92 % of control

CCSc1nc(N)c2ncn(C3OC(CO)C(O)C3O)c2n1 (stereo not drawn)
inactive: endpoint: median survival time, dose: 10.0 mg/kg/injection, schedule: Q01DX005 (ip), vehicle: saline with Tween-80 103 % of control | endpoint: median survival time, dose: 20.0 mg/kg/injection, schedule: Q01DX005 (ip), vehicle: saline with Tween-80 100 % of control | endpoint: median survival time, dose: 40.0 mg/kg/injection, schedule: Q01DX005 (ip), vehicle: saline with Tween-80 91 % of control | endpoint: median survival time, dose: 80.0 mg/kg/injection, schedule: Q01DX005 (ip), vehicle: saline with Tween-80 88 % of control | endpoint: median survival time, dose: 160.0 mg/kg/injection, schedule: Q01DX005 (ip), vehicle: saline with Tween-80 93 % of control
